According to PMC13408522, “The Effect of Glycosylation on Biodistribution and Cytotoxicity of ^99mTc-Radiolabeled Luteolin” (Advanced Pharmaceutical Bulletin, 2025):
Entries after “also recorded” stand apart in the source; their conditions may differ. Read-outs that look alike come from different tables or passages of the source.

How the values were obtained:
HepG2 cells [1] = experiment: MTT cell viability assay, HepG2; format: cell-based; settings: 5-200 µg/mL, 24 h (LuG also 48 and 72 h)
Method: (§1) According to the biodistribution results of Lu and LuG in the previous step, three cell lines were selected for further analysis. HUVEC cell line (an endothelial cell that was isolated from the umbilical cord vein) as a normal cell, SW480 as a colorectal cancer cell line, and HepG2 as a hepatocellular carcinoma cell line were obtained from the cell bank of Roshd Azma Company. They were cultured in Dulbecco’s Modified Eagle Medium (DMEM) supplemented with FBS 10% (Fetal Bovine Serum) and Pen/Sterp 10^4 U/mL (Penicillin- Streptomycin) at 37°C and 5% carbon dioxide (CO2). Then, 10^5 cells/mL were seeded in 96-well cell culture plates and incubated for 24 h.
(§2) After 24 h, the cell lines were treated with Lu and LuG (5, 10, 25, 50, 75, 100, 200 µg/mL). The cytotoxicity effect of Lu and LuG was measured using the MTT (3-[4,5-dimethylthiazol-2-yl]- 2,5-diphenyltetrazolium bromide) assay for 24 h. Next, 20 μL of MTT solution (5 mg/mL) was added to each well, and the complexes were incubated at 37°C for 4 hours. Afterward, the culture medium was removed and replaced with DMSO 200 μL). The absorbance of each well was determined at 570 nm using an ELISA reader, and the cell viability percentage was calculated relative to the control group.

SW480 cells = experiment: MTT cell viability assay, SW480; format: cell-based; settings: 5-200 µg/mL, 24 h
Method: as §1, §2

HepG2 cells [2] = settings: cited from earlier work
HUVEC cells = experiment: MTT cell viability assay, HUVEC normal cells; format: cell-based; settings: 5-200 µg/mL, 24 h
Method: as §1, §2

[3] = Biodistribution of 99mTc-radiolabeled flavonoids, organ radioactivity after SPECT imaging; set-up: species or system Wistar-Albino rats; settings: rat, in vivo
Method: Five milligrams of tin chloride (SnCl2) was dissolved in 1 mL of hydrochloric acid 10% and diluted with 3 mL of distilled water, and the pH was adjusted to 7. Then, 1 mg of Lu and LuG and about 4 mCi of fresh pertechnetate (^99mTcO4) in 2 mL of NaCl were added to the complex. Afterward, it was incubated at room temperature for 20 minutes.
An intraperitoneal injection of a ketamine and xylazine mixture anesthetized the Wistar-Albino rats. About 1.4 mCi of flavonoid-^99mTc complex (^99mTc-Lu and ^99mTc-LuG) was injected through the tail vein. The imaging was performed using SPECT (Single-Photon Emission Computed Tomography) at 0, 5, 15, 30, 60, and 90 min. Then, the animals were sacrificed in accordance with all ethical considerations, and each organ was carefully separated. The percentage of radioactivity in each organ was calculated by dividing the activity counted by the dose calibrator by the total radioactivity. This method ensured accurate assessment of the biodistribution of the radiolabeled compounds within the various organs.
Organ accumulation of ^99mTc−Lu/^99mTc−LuG (%)=(Amount of radioactivity counted in each organ/Amount of radioactivity counted in whole body)×100

HepG2 cells [4] = system: HepG2 cells; set-up: method as in PMID 32129972; settings: cited from earlier work
HepG2 cells [5] = experiment: Cell cycle analysis by PI flow cytometry; format: cell-based
Method: HepG2 cells were seeded in 6-well plates and treated with various concentrations of Luteolin-7-O-glucoside for 24 h. After treatment, the cells were fixed in a solution of ethanol: water (7:3) at -20 °C. Then, ethanol-fixed cells were washed with PBS and incubated with RNase A (100 μL) for 30 min. Following the RNase treatment, the cells were incubated in a PI/Triton X-100 solution for an additional 30 minutes. The samples were analyzed using a flow cytometer (FACSCalibur), and the data were assessed with FlowJo version 10. Finally, the G0/G1 phase (2N DNA content), S phase (intermediate DNA content), and G2/M phase (4N DNA content) were calculated.[13]

HepG2 cells [6] = experiment: Annexin V-FITC/PI flow cytometry for apoptosis/necrosis; format: cell-based; settings: HepG2, 5, 30, 50 µg/mL
Method: According to the results of the previous steps, LuG was selected for flow cytometry testing on the HepG2 cancer cell line. […] HepG2 cells were treated with LuG (5, 30, 50 µg/mL) for 48 h and then washed with PBS. Next, 300 µL of binding buffer was added to 1 × 10^6 cells and incubated for 15 min at 25°C in away from the light with 4 µL of FITC Annexin V and 2 µL of PI. To investigate apoptotic or necrotic pathways, data were analyzed by FlowJo software. […] Additionally, cells without any treatment (negative control) and those treated with LuG (positive control) were designated as “Auto” and “Unstained”, respectively.

HepG2 cells [7] = system: HepG2 cells; set-up: method as in PMID 24257119; settings: 24 h treatment; cited from earlier work
[8] = listed as luteolin-7-O-glucoside

| SMILES | cytotoxicity on HepG2 cells (in words) (HepG2 cells [1]) | cytotoxicity on HepG2 cells (in words) (HepG2 cells [1]; listed as luteolin) | cytotoxicity on SW480 cells (in words) (SW480 cells) | apoptosis in HepG2 cells (HepG2 cells [2]; luteolin: ref 32) | cytotoxicity on normal HUVEC cells (in words) (HUVEC cells) | elimination phase of the radiolabeled compound (in words) [3] | effect on viability of HepG2 cell line (HepG2 cells [4]) | effect on cell cycle progression (in words) (HepG2 cells [5]; HepG2) | change in S phase versus control (HepG2 cells [5]; HepG2, 24 h) | decrease of 4N DNA content (G2/M phase) versus control (HepG2 cells [5]; HepG2, 24 h) | increase of 2N DNA content (G0/G1 phase) versus control (HepG2 cells [5]; HepG2, 24 h) | cytotoxicity on HepG2 cells (in words) (HepG2 cells [1]; [8]) | apoptosis in HepG2 cells (HepG2 cells [2]; LuG: ref 31) | apoptosis/necrosis of HepG2 cells (in words) (HepG2 cells [6]) | apoptosis/necrosis of HepG2 cells (in words) (HepG2 cells [6]; [8]) | cell cycle effect in HepG2 (HepG2 cells [7]) |
| --- | --- | --- | --- | --- | --- | --- | --- | --- | --- | --- | --- | --- | --- | --- | --- | --- |
| O=c1cc(-c2ccc(O)c(O)c2)oc2cc(O)cc(O)c12 [Lu, 3′,4′,5,7-tetrahydroxy flavone] | less accumulation and cytotoxicity | less effective against HepG2 cells compared to the glycone form | no inhibitory effects | triggers classical mitochondrial apoptosis | did not demonstrate any cytotoxicity |  |  |  |  |  |  |  |  |  |  |  |
| O=c1cc(-c2ccc(O)c(O)c2)oc2cc(O[C@@H]3O[C@H](CO)[C@@H](O)[C@H](O)[C@H]3O)cc(O)c12 [LuG, luteolin-7-O-glucoside] | significant cytotoxicity |  | negligible toxicity; also recorded: no inhibitory effects |  | negligible toxicity; also recorded: did not demonstrate any cytotoxicity | more rapidly than that of its aglycone form | dose-dependent effect | impaired G1 to S progression | no significant changes | about 7% | approximately 5% | highest cytotoxic effect; also recorded: effectively inhibits HepG2 cell viability | induced apoptotic features | non-apoptotic cell death; also recorded: no significant increase | did not involve necrotic or apoptotic pathways | induced G2/M phase |
